For two molecules, IC50 results are on record in paper PMC2948233 (Organic & biomolecular chemistry, 2010).

Broadly, the IC50 is the concentration at which inhibition is half-maximal. A low value points to higher potency.

The assay deals with T1, phosphopantetheinyl transferase Sfp (Bacillus subtilis, UniProt P39135).
T1 sequence (P39135 1-224): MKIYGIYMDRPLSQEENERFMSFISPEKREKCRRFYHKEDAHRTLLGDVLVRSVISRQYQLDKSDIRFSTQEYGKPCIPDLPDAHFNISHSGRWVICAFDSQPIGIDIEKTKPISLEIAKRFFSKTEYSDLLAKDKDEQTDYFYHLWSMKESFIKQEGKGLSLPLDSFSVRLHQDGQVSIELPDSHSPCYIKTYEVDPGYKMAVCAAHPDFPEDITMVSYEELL
Description: FRET-quench phosphopantetheinyl transferase assay. It counts as biochemical.

In the case of `N=C1Sc2ccccc2C2=NCCCN12` [PD 404,182], the 50% inhibitory concentration (IC50) was 3.2 µM.

`Clc1ccc(C(c2ccc(Cl)cc2)n2cc[n+](CC(OCc3ccc(Cl)cc3Cl)c3ccc(Cl)cc3Cl)c2)cc1` (centres unmarked) [calmidazolium chloride] had a half-maximal inhibitory concentration (IC50) of 20 µM.
